Laboratory results as given in US4752612A, “Method and percutaneously administering physiologically active agents using an alcohol adjuvant and a solvent” (Nitto Electrical Industrial Co., Ltd., priority 1986, dated 1988).
Counter-ions that a name gives are not always drawn. Like-named read-outs stand apart in the source and are kept apart here.

Assays:
rhesus monkey = assay: Pharmacological (behavioral) effect in animal model after percutaneous administration; format: in vivo; conditions: blood level approximately 100 ng/ml plasma
[1] = From the text: Rat full thickness skins were used in the diffusion cell method following the method of Michaels, AlChE Journal, 21 [5], 985-996, 1975. The rat skin was mounted in the diffusion cell in a vertical position between the upstream and the downstream compartments; the exposed area of the skin approximated 4.15 cm^2.
The skin was excised from the shaved abdominal site of male albino rats weighing 250~300 g, and washed with normal saline solution after the subcutaneous fat was carefully removed with scissors.
The active agent/PAEC solution of known concentration was added to the upper compartment of the cell, which was exposed to the epithelial side of the skin and a normal saline solution was placed in the lower compartment.
The penetration rate was studied in a thermostated bath at 30° C.
As an alternative, the finite dose technique of Franz, Curr. Probl. Dermatol., Vol. 7, p. 58~68 (Karger, Basel, 1978) can also be followed where the rat skin is mounted horizontally in a diffusion cell apparatus and the exposed area of the skin approximates 0.7 cm^2.
The active agent/PAEC solution of known concentration was added to the upstream compartment to which the epithelial side of the skin was exposed, and a normal saline solution was added to the downstream compartment.
Liquid compositions are prepared by firstly mixing Component A with Component B and then blending the active agent in the mixture. In the case that Component B is a solid at ambient temperature or will not homogenously mix with Component A, 20 wt.% of ethylene glycol monobutyl ether based on the weight of Components A and B can be used as an agent for assisting dissolution.
The flux of the active agent is given in terms of μg/cm^2 /8 hours. Twenty-five volume percent Component A with respect to Component A plus Component B volume was used in the composition along with 2.5 weight percent of the active agent. For purposes of comparison, in certain instances the results for solvents alone and adjuvants alone are given.
A propranolol system was formulated as follows: […] of propranolol was dissolved in 1 ml of 25 volume % dodecanol in N-methyl-2-pyrrolidone (based on total volume) and in 1 ml of ethyl alcohol as a comparison study.
In the following Example 8, in vitro transdermal penetration was again analyzed using rat full thickness skins following the method of Michaels, AIChE Journal, 21, [53], pp. 985-996 (1975), according to the procedure earlier described. The sample volume was 1 ml unless otherwise indicated and flux of the active agent is given in μg/cm^2 /8 hours. All percents are volume percents based on the total volume of the system unless otherwise indicated.

[2] = In vivo rhesus monkey test, plasma level after topical application; conditions: for concentration at 3 h / concentration at 5 h / concentration at 7 h: topical
Experimental: If desired, an in vivo rhesus monkey test as described below may also be used to determine the effect of the PAEC combinations of the present invention.
Male rhesus monkeys weighing 10-14 Kg each can be used as the subject. An appropriate area of the monkey's chest is shaved 24 hours before drug application.
Drug formulations comprising the PAEC are applied to a certain area of the chest. The monkey is restrained in a chair to prevent it from touching its chest.
Blood samples are taken at appropriate intervals after the application. The heparinized blood is centrifuged, and the plasma removed and stored at -20° C. until analyzed.
In the following Examples 15 and 16, the in vivo monkey regimen earlier described was used to determine the effect of the PAEC combinations of the present invention, the regimen being modified as follows:
Male rhesus monkeys weighting 8 to 13 Kg wee used as the subject and an appropriate area of the monkey's upper back was shaved 24 hours before drug application;
the drug formulations were applied to 49 cm^2 of the upper back of the monkey; and
plasma samples taken at appropriate intervals were analyzed by conventional HPLC.
1 ml of 25% 1-dodecanol and 75% MP containing 200 mg of propanolol was impregnated into a polyester non-woven cloth (49 cm^2; 230 mg) and applied to the upper back area of the monkey.
The application site was occluded with Saran® film.
The procedure of Example 15 was followed except for using Indomethacin, a NSAID, in place of propranolol.

For `CN1C(=O)CN=C(c2ccccc2)c2cc(Cl)ccc21` [Diazepam, 7-Chloro-1,3-dihydro-1-methyl-5-phenyl-2H-1,4-benzodiazepine-2-one], which “pharmacological (behavioral) signs of therapeutic effectiveness” value (rhesus monkey) is on record?
The value was “produces pharmacological (behavioral) signs of therapeutic effectiveness”.

Which “flux (Ibuprofen)” value ([1]; (a) 25 mg + 1 ml of 25% 1-dodecanol and 75% N-methyl pyrrolidone) does the source give for `CC(C)Cc1ccc(C(C)C(=O)O)cc1` (stereo not drawn) [Ibuprofen, p-isobutylhydratropic acid<2',4'-isobutylphenyl propionic acid] here?
Its value is 307 μg/cm^2 /8 hours.

What about the “flux (Ibuprofen)” value ([1]; (b) 25 mg + 1 ml of 25% 1-dodecanol in 75% N-methyl piperidone) of the same compound?
Its value is 266 μg/cm^2 /8 hours.

And the “flux (Ibuprofen)” value ([1]; (c) 25 mg + 1 ml of 25% 1-dodecanol in 75% N-methyl caprolactum)?
Its value is 148 μg/cm^2 /8 hours.

Which results are given for `COc1ccc2c(c1)c(CC(=O)O)c(C)n2C(=O)c1ccc(Cl)cc1` [Indomethacin, 1-(p-chlorobenzoyl)-5-methoxy-2-methylindole-3-acetic acid]?
flux (Indomethacin) ([1]; (a) 25 mg + 1 ml of 25% linalool and 75% MP): 98 μg/cm^2 /8 hours; flux (Indomethacin) ([1]; (b) 25 mg + 1 ml of 25% 1-dodecanol and 75% MP): 236 μg/cm^2 /8 hours; flux (Indomethacin) ([1]; (c) 25 mg + 1 ml of 25% oleyl alcohol and 75% MP): 236 μg/cm^2 /8 hours; Plasma Level ([2]; rhesus monkey, in vivo, 60 min): 0 ng/ml Plasma; concentration at 3 h ([2]; rhesus monkey, in vivo): 270 ng/mL; concentration at 5 h ([2]; rhesus monkey, in vivo): 495 ng/mL; concentration at 7 h ([2]; rhesus monkey, in vivo): 336 ng/mL

For `CCN(CC)CCNC(=O)c1cc(Cl)c(N)cc1OC` [Metoclopramide (free base)], which Flux [1] is on record?
Its Flux is 2694 μg/cm^2 /8 hrs.

Which Flux [1] does the source give for `CCN(CC)CCNC(=O)c1cc(Cl)c(N)cc1OC` [Metoclopramide HCl] here?
Its Flux is 3280 μg/cm^2 /8 hrs.

Which results are given for `COC(=O)C1=C(C)NC(C)=C(C(=O)OC)C1c1ccccc1[N+](=O)[O-]` [Nifedipine, 1,4-dihydro-2,6-dimethyl-4-(2-nitrophenyl)-3,5-pyridine dicarboxylic acid dimethyl ester]?
flux (Nifedipine) ([1]; (a) 25 mg + 1 ml of 25% 1-dodecanol and 75% MP): 480 μg/cm^2 /8 hours; flux (Nifedipine) ([1]; (b) 25 mg + 1 ml of 25% oleyl alcohol and 75% MP): 394 μg/cm^2 /8 hours; flux (Nifedipine) ([1]; (c) 25 mg + 1 ml of 25% 2-octyl-1-dodecanol and 75% MP): 246 μg/cm^2 /8 hours; flux (Nifedipine) ([1]; (d) control: 25 mg + 1 ml of MP): 30 μg/cm^2 /8 hours

What does the source list for `CC(C)NCC(O)COc1cccc2ccccc12` (stereo not drawn) [Propranolol]?
Plasma Level ([2]; 1 hr, 200 mg in 1 ml of 25% 1-dodecanol and 75% MP, 49 cm^2 upper back, occluded): 0 ng/ml Plasma; concentration at 3 h ([2]; rhesus monkey, plasma, 3 hr, 200 mg in 1 ml of 25% 1-dodecanol and 75% MP, 49 cm^2 upper back, occluded): 55 ng/mL; concentration at 5 h ([2]; rhesus monkey, plasma, 5 hr, 200 mg in 1 ml of 25% 1-dodecanol and 75% MP, 49 cm^2 upper back, occluded): 85 ng/mL; concentration at 7 h ([2]; rhesus monkey, plasma, 7 hr, 200 mg in 1 ml of 25% 1-dodecanol and 75% MP, 49 cm^2 upper back, occluded): 80 ng/mL
